Source: patent US20260274833A1 (NiKang Therapeutics, Inc., priority 2022, published 2026)

Biological target: T1, CDK2 (Homo sapiens, UniProt P24941)
T1 construct: endogenous in cells; host or cells: OVCAR3 cells
Assay: Phospho-RB measurement in OVCAR3 cells (HTRF phospho-RB cellular kit)
Format: cell-based
Settings: inhibition of RB phosphorylation at S807/811 (HTRF, TR-FRET ratio 665/620), 24 h compound treatment, 0.3 to 10,000 nM
Method in brief: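 IC50 came from a four-parameter logistic fit of the DMSO-normalized TR-FRET ratio (665/620 nm). That ratio reflects RB phosphorylation at S807/811, read with an HTRF antibody pair 4 h after adding lysate at room temperature.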

Structure (SMILES)	IC50 [nM]
COc1ccc2c(c1)CN(S(=O)(=O)Nc1cccc(-c3nc(C(C)(C)C)sc3-c3ccnc(NC4CCN(S(C)(=O)=O)CC4)n3)c1F)C2 [Example 72, N-(3-(2-(tert-butyl)-5-(2-((1-(methylsulfonyl)-piperidin-4-yl)amino)-pyrimidin-4-yl)thiazol-4-yl)-2-fluoro-phenyl)-5-methoxyisoindoline-2-sulfonamide]	185
CN(C)S(=O)(=O)Nc1cccc(-c2nc(C(C)(C)C)sc2-c2ccnc(NC3CC4(C3)CS(=O)(=O)C4)n2)c1F [Example 184, N-(3-(2-(tert-butyl)-5-(2-((2,2-dioxido-2-thiaspiro[3.3]heptan-6-yl)amino)-pyrimidin-4-yl)thiazol-4-yl)-2-fluoro-phenyl)dimethyl-aminesulfonamide]	1540
CN(C)c1ccc2c(c1)N(S(=O)(=O)Nc1cccc(-c3nc(C45CC(C4)C5)sc3-c3ccnc(NC4CC5(C4)CS(=O)(=O)C5)n3)c1F)CC2 [Example 22, N-(3-(2-(bicyclo [1.1.1]pentan-1-yl)-5-(2-((2,2-dioxido-2-thiaspiro [3.3]heptan-6-yl)amino)-pyrimidin-4-yl)thiazol-4-yl)-2-fluorophenyl)-6-(dimethylamino)-indoline-1-sulfonamide]	477
CN1CC2CCC(C1)N2c1nc(-c2cccc(NS(=O)(=O)N3Cc4cccc(OC(F)F)c4C3)c2F)c(-c2ccnc(NC3CC4(C3)CS(=O)(=O)C4)n2)s1 [Example 30, 4-(difluoromethoxy)-N-(3-(5-(2-((2,2-dioxido-2-thiaspiro [3.3]heptan-6-yl)amino)pyrimidin-4-yl)-2-(3-methyl-3,8-diazabicyclo [3.2.1]-octan-8-yl)thiazol-4-yl)-2-fluorophenyl)-isoindoline-2-sulfonamide]	28.5
CC(C)(C)c1nc(-c2cccc(NS(=O)(=O)N3Cc4ccc(F)cc4C3)c2F)c(-c2ccnc(NC3CCN(S(=O)(=O)N4CCNCC4)CC3)n2)s1 [Example 144, N-(3-(2-(tert-butyl)-5-(2-((1-(piperazin-1-ylsulfonyl)piperidin-4-yl)amino)-pyrimidin-4-yl)thiazol-4-yl)-2-fluoro-phenyl)-5-fluoro-isoindoline-2-sulfonamide]	227
CC(C)(C)c1nc(-c2cccc(NS(=O)(=O)N3CCc4ncccc43)c2F)c(-c2ccnc(NC3CC4(C3)CS(=O)(=O)C4)n2)s1 [Example 190, N-(3-(2-(tert-butyl)-5-(2-((2,2-dioxido-2-thiaspiro[3.3]heptan-6-yl)amino)-pyrimidin-4-yl)thiazol-4-yl)-2-fluoro-phenyl)-2,3-dihydro-1H-pyrrolo[3,2-b]-pyridine-1-sulfonamide]	259
O=S1(=O)C[C@@H]2[C@H](C1)[C@H]2Nc1nccc(-c2sc(C34CC(C3)C4)nc2-c2cccc(NS(=O)(=O)N3CCc4c(CO)cccc43)c2F)n1 [Example 13, N-(3-(2-(bicyclo [1.1.1]pentan-1-yl)-5-(2-(((1R,5S,6r)-3,3-dioxido-3-thia-bicyclo[3.1.0]-hexan-6-yl)amino)-pyrimidin-4-yl)thiazol-4-yl)-2-fluorophenyl)-4-(hydroxymethyl)-indoline-1-sulfonamide]	57.7
CC(C)(C)c1nc(-c2cccc(NS(=O)(=O)N3CCOc4ccccc4C3)c2F)c(-c2ccnc(NC3CCN(S(C)(=O)=O)CC3)n2)s1 [Example 91, N-(3-(2-(tert-butyl)-5-(2-((1-(methylsulfonyl)-piperidin-4-yl)amino)-pyrimidin-4-yl)thiazol-4-yl)-2-fluorophenyl)-2,3-dihydrobenzo [f][1,4]-oxazepine-4 (5H)-sulfonamide]	117
CC(C)(C)c1nc(-c2cccc(NS(=O)(=O)N3CCc4ccncc43)c2F)c(-c2ccnc(NC3CCN(S(C)(=O)=O)CC3)n2)s1 [Example 154, N-(3-(2-(tert-butyl)-5-(2-((1-(methylsulfonyl)-piperidin-4-yl)amino)-pyrimidin-4-yl)thiazol-4-yl)-2-fluoro-phenyl)-2,3-dihydro-1H-pyrrolo[2,3-c]-pyridine-1-sulfonamide]	685
CC(C)(C)c1nc(-c2cccc(NS(=O)(=O)N3CCC4(CC4)C3)c2F)c(-c2ccnc(NC3CC4(C3)CS(=O)(=O)C4)n2)s1 [Example 180, N-(3-(2-(tert-butyl)-5-(2-((2,2-dioxido-2-thiaspiro[3.3]heptan-6-yl)amino)-pyrimidin-4-yl)thiazol-4-yl)-2-fluoro-phenyl)-5-azaspiro[2.4] heptane-5-sulfonamide]	2820
CC(C)(C)c1nc(-c2cccc(NS(=O)(=O)N3CCc4cnccc43)c2F)c(-c2ccnc(NC3CCN(S(C)(=O)=O)CC3)n2)s1 [Example 162, N-(3-(2-(tert-butyl)-5-(2-((1-(methylsulfonyl)piperidin-4-yl)amino)-pyrimidin-4-yl)thiazol-4-yl)-2-fluoro-phenyl)-2,3-dihydro-1H-pyrrolo [3,2-c]-pyridine-1-sulfonamide]	2120

The remaining lines, values ahead:

IC50 [nM]	Structure (SMILES)
3390	CC(C)(C)OC(=O)N1CCN(c2ccc(Nc3nccc(-c4sc(C(C)(C)C)nc4-c4cccc(NS(=O)(=O)N5CCc6ccc(C#N)cc65)c4F)n3)cc2)CC1 [Example 235, tert-butyl 4-(4-((4-(2-(tert-butyl)-4-(3-((6-cyanoindoline)-1-sulfonamido)-2-fluorophenyl)thiazol-5-yl)pyrimidin-2-yl)amino)phenyl) piperazine-1-carboxylate]
2040	CN(c1cccc2c1NCC2)S(=O)(=O)Nc1cccc(-c2nc(C(C)(C)C)sc2-c2ccnc(NC3CCN(S(C)(=O)=O)CC3)n2)c1F [Example 259, N-(3-(2-(tert-butyl)-5-(2-((1-(methylsulfonyl)-piperidin-4-yl)amino)-pyrimidin-4-yl)thiazol-4-yl)-2-fluoro-phenyl)-(N-methyl-N-indolin-7-yl)-amine-sulfonamide]
683	CC(C)(C)c1nc(-c2cccc(NS(=O)(=O)N3Cc4ccc(C(F)F)cc4C3)c2F)c(-c2ccnc(NC3CC4(C3)CS(=O)(=O)C4)n2)s1 [Example 255, N-(3-(2-(tert-butyl)-5-(2-((2,2-dioxido-2-thiaspiro[3.3]heptan-6-yl)amino)-pyrimidin-4-yl)thiazol-4-yl)-2-fluoro-phenyl)-5-(difluoromethyl) isoindoline-2-sulfonamide]
3300	CC(C)(C)c1nc(-c2cccc(NS(=O)(=O)N3Cc4ccccc4C3Cc3ccccc3)c2F)c(-c2ccnc(NC3CCN(S(C)(=O)=O)CC3)n2)s1 (stereo not shown) [Example 213, 1-benzyl-N-(3-(2-(tert-butyl)-5-(2-((1-(methylsulfonyl)piperidin-4-yl)amino)-pyrimidin-4-yl)thiazol-4-yl)-2-fluoro-phenyl)-isoindoline-2-sulfonamide]
613	CC(C)(C)c1nc(-c2cccc(NS(=O)(=O)N3Cc4cccc(Oc5ccccc5)c4C3)c2F)c(-c2ccnc(NC3CCN(S(C)(=O)=O)CC3)n2)s1 [Example 211, N-(3-(2-(tert-butyl)-5-(2-((1-(methylsulfonyl)-piperidin-4-yl)amino)-pyrimidin-4-yl)thiazol-4-yl)-2-fluoro-phenyl)-4-phenoxyisoindoline-2-sulfonamide]
350	CC1(c2nc(-c3cccc(NS(=O)(=O)N4Cc5ccncc5C4)c3F)c(-c3ccnc(NC4CC5(C4)CS(=O)(=O)C5)n3)s2)CCOCC1 [Example 209, N-(3-(5-(2-((2,2-dioxido-2-thiaspiro-[3.3]-heptan-6-yl)amino)pyrimidin-4-yl)-2-(4-methyltetrahydro-2H-pyran-4-yl)thiazol-4-yl)-2-fluorophenyl)-1,3-dihydro-2H-pyrrolo [3,4-c]-pyridine-2-sulfonamide]
2960	CC(C)(C)c1nc(-c2cccc(NS(=O)(=O)N3CCc4ccc(C(C)(C)O)cc43)c2F)c(-c2ccnc(NC3CC4(C3)CS(=O)(=O)C4)n2)s1 [Example 257, N-(3-(2-(tert-butyl)-5-(2-((2,2-dioxido-2-thiaspiro[3.3]heptan-6-yl)amino)-pyrimidin-4-yl)thiazol-4-yl)-2-fluoro-phenyl)-6-(2-hydroxypropan-2-yl)indoline-1-sulfonamide]
38.2	CC1(c2nc(-c3cccc(NS(=O)(=O)N4CCc5ccc(C#N)cc54)c3F)c(-c3ccnc(NC4CC5CS(=O)(=O)CC5C4)n3)s2)CCOCC1 (stereo not shown) [Example 240, 6-cyano-N-(3-(5-(2-((2,2-dioxidohexa-hydro-1H-cyclopenta[c]thiophen-5-yl)amino)-pyrimidin-4-yl)-2-(4-methyl-tetrahydro-2H-pyran-4-yl)thiazol-4-yl)-2-fluorophenyl)-indoline-1-sulfonamide]
350	O=S1(=O)CC2(CC(Nc3nccc(-c4sc(C56CC(C5)C6)nc4-c4cccc(NS(=O)(=O)N5CCOc6ccccc6C5)c4F)n3)C2)C1 [Example 272, N-(3-(2-(bicyclo [1.1.1]pentan-1-yl)-5-(2-((2,2-dioxido-2-thiaspiro[3.3]heptan-6-yl)amino)-pyrimidin-4-yl)thiazol-4-yl)-2-fluorophenyl)-2,3-dihydrobenzo-[f][1,4]oxazepine-4(5H)-sulfonamide]
118	N#Cc1ccc2c(c1)N(S(=O)(=O)Nc1cccc(-c3nc(C45CC(C4)C5)sc3-c3ccnc(NC4CCN(S(=O)(=O)N5CCNCC5)CC4)n3)c1F)CC2 [Example 263, N-(3-(2-(bicyclo [1.1.1]pentan-1-yl)-5-(2-((1-(piperazin-1-ylsulfonyl)piperidin-4-yl)amino)-pyrimidin-4-yl)thiazol-4-yl)-2-fluorophenyl)-6-cyanoindoline-1-sulfonamide]
29.9	CN1CC2CCC(C1)N2c1nc(-c2cccc(NS(=O)(=O)N3CCc4ccc(C(F)(F)F)cc43)c2F)c(-c2ccnc(NC3CC4(C3)CS(=O)(=O)C4)n2)s1 [Example 292, N-(3-(5~(2-((2,2-dioxido-2-thiaspiro-[3.3]heptan-6-yl)amino)pyrimidin-4-yl)-2-(3-methyl-3,8-diazabicyclo[3.2.1]-octan-8-yl)thiazol-4-yl)-2-fluorophenyl)-6-(trifluoromethyl) indoline-1-sulfonamide]
